{
  "source": "patent US20100021918A1",
  "about": "“METHOD FOR ASSAYING ACTION OF ANTITUMOR AGENT USING SPLICING DEFECTS AS INDEX” (Eisai R&D Management Co., Ltd., priority 2007, published 2010)",
  "key": {"SMN": {"test_system": "SMN", "test": "Western blotting of abnormal protein from pre-mRNA, SMN", "format": "cell-based, human", "conditions": "HeLa cells, 10 nM and 100 nM, 24 hours; untreated: only a 35 kDa band (FIG. 4)", "excerpt": "(§1) Consequently the protein may serves as a protein marker to monitor the action of (8E,12E,14E)-7-((4-cycloheptylpiperazin-1-yl)carbonyl)oxy-3,6,16,21-tetrahydroxy-6,10,12,16,20-pentamethyl-18,19-epoxytricosa-8,12,14-trien-11-olide. Whether the pre-mRNA-dependent abnormal protein practically emerged upon the treatment of (8E,12E,14E)-7-((4-cycloheptylpiperazin-1-yl)carbonyl)oxy-3,6,16,21-tetrahydroxy-6,10,12,16,20-pentamethyl-18,19-epoxytricosa-8,12,14-trien-11-olide was examined by using cancer cells (HaLa). […] Based on these findings, the protein generated from pre-mRNA can serve as the marker as well.\n(§2) About 3×10^5 cells of HeLa cells were first seeded in a 24-well culture plate (bottom area: 2 cm^2), and 18 hours later, the compound was added thereto at the indicated concentration, followed by additional 24-hour culturing. The cells were washed once with PBS(−), and then were lysed by treating with 0.2 ml of M-PER reagent (PIERCE) for 30 minutes. The collected lysate was filtered with a 0.45 μm filter to remove insoluble matters and then combined with an equal amount of 2×SDS-PAGE sample solution. The mixture was heated to be denatured at 95° C. for five minutes to yield a sample to be analyzed.\n(§3) The analysis sample (15 μl each) was separated with 5-20% SDS-PAGE and transferred onto a PVDF membrane (Hybond-P: GE-Amersham). […]"}, "p27/Kip1": {"test_system": "p27/Kip1", "test": "Western blotting of abnormal protein from pre-mRNA, p27/Kip1", "format": "cell-based, human", "conditions": "HeLa cells, about 100 nM, 24 hours; untreated: only a 27 kDa band (FIG. 4)", "excerpt": "as §1, §2, §3"}},
  "data": [
    {"smiles": "CCC(O)C(C)C1OC1CC(C)(O)/C=C/C=C(\\C)C1OC(=O)CC(O)CCC(C)(O)C(OC(=O)N2CCN(C3CCCCCC3)CC2)/C=C/C1C", "note": "(centres unmarked) [E7107, (8E,12E,14E)-7-((4-cycloheptylpiperazin-1-yl)carbonyl)oxy-3,6,16,21-tetrahydroxy-6,10,12,16,20-pentamethyl-18,19-epoxytricosa-8,12,14-trien-11-olide]", "values": [
      {"measurement": "SMN bands in Western blot", "setting": "SMN", "value": "multiple bands with a molecular weight of less than 35 kDa were confirmed"},
      {"measurement": "p27/Kip1 bands in Western blot", "setting": "p27/Kip1", "value": "appearance of a band with about 22 kDa was confirmed"}
    ]}
  ]
}
